# Measured values from paper PMC10946732.
# Where two headings read alike, the source gives them in different places.
# Legend:
# [1] = Two-component stapling: SNAr of two Cys thiolates (C-S bonds) on para-C-F of 5,10,15,20-tetrakis(pentafluorophenyl)porphyrin (2), 1 equiv; Cs2CO3 8 equiv, TCEP 4 equiv, N2; details: the molecule shown is the open-chain precursor, DMSO (dry), 3.3 mM, 25.0 °C, 2.0 h
# [2] = the molecule shown is the open-chain precursor; 42-membered ring
smiles,measurement,setting,value
C[C@H](N)C(=O)N[C@@H](CSc1c(F)c(F)c(-c2c3nc(c(-c4c(F)c(F)c(F)c(F)c4F)c4ccc([nH]4)c(-c4c(F)c(F)c(F)c(F)c4F)c4nc(c(-c5c(F)c(F)c(F)c(F)c5F)c5ccc2[nH]5)C=C4)C=C3)c(F)c1F)C(=O)N[C@@H](C)C(=O)N[C@H](C(=O)NCC(=O)N[C@@H](CO)C(=O)N[C@H](C(=O)N[C@@H](CCC(N)=O)C(=O)N[C@@H](Cc1c[nH]cn1)C(=O)N[C@@H](CCC(N)=O)C(=O)N[C@@H](C)C(=O)N[C@@H](CS)C(=O)NCC(N)=O)[C@@H](C)O)[C@@H](C)O [H-Ala-Cys-Ala-Thr-Gly-Ser-Thr-Gln-His-Gln-Ala-Cys-Gly-NH2],"ring closure, conversion by HPLC",[1]; 48-membered ring,35%
CC(C)C[C@H](NC(=O)[C@H](C)NC(=O)[C@@H](NC(=O)[C@H](CCC(=O)O)NC(=O)[C@@H]1CCCN1C(=O)[C@H](C)NC(=O)[C@H](CCCCN)NC(=O)[C@@H](N)CSc1c(F)c(F)c(-c2c3nc(c(-c4c(F)c(F)c(F)c(F)c4F)c4ccc([nH]4)c(-c4c(F)c(F)c(F)c(F)c4F)c4nc(c(-c5c(F)c(F)c(F)c(F)c5F)c5ccc2[nH]5)C=C4)C=C3)c(F)c1F)[C@@H](C)O)C(=O)N[C@@H](CS)C(N)=O [H-Cys-Lys-Ala-Pro-Glu-Thr-Ala-Leu-Cys-NH2],"ring closure, conversion by HPLC",[2],44%
C[C@H](N)C(=O)N[C@@H](CSc1c(F)c(F)c(-c2c3nc(c(-c4c(F)c(F)c(F)c(F)c4F)c4ccc([nH]4)c(-c4c(F)c(F)c(F)c(F)c4F)c4nc(c(-c5c(F)c(F)c(F)c(F)c5F)c5ccc2[nH]5)C=C4)C=C3)c(F)c1F)C(=O)N[C@H](C(=O)N[C@@H](CO)C(=O)N[C@H](C(=O)N[C@@H](CCC(N)=O)C(=O)N[C@@H](Cc1c[nH]cn1)C(=O)N[C@@H](CCC(N)=O)C(=O)N[C@@H](CS)C(=O)NCC(N)=O)[C@@H](C)O)[C@@H](C)O [H-Ala-Cys-Thr-Ser-Thr-Gln-His-Gln-Cys-Gly-NH2],"ring closure, conversion by HPLC",[1]; 39-membered ring,50%
C[C@H](N)C(=O)N[C@@H](CSc1c(F)c(F)c(-c2c3nc(c(-c4c(F)c(F)c(F)c(F)c4F)c4ccc([nH]4)c(-c4c(F)c(F)c(F)c(F)c4F)c4nc(c(-c5c(F)c(F)c(F)c(F)c5F)c5ccc2[nH]5)C=C4)C=C3)c(F)c1F)C(=O)N[C@H](C(=O)NCC(=O)N[C@@H](CO)C(=O)N[C@H](C(=O)N[C@@H](CCC(N)=O)C(=O)N[C@@H](Cc1c[nH]cn1)C(=O)N[C@@H](CCC(N)=O)C(=O)N[C@@H](CS)C(=O)NCC(N)=O)[C@@H](C)O)[C@@H](C)O [H-Ala-Cys-Thr-Gly-Ser-Thr-Gln-His-Gln-Cys-Gly-NH2],"ring closure, conversion by HPLC",[1]; 42-membered ring,46%
same,"ring closure, isolated yield",[1]; 42-membered ring,18%
C[C@H](N)C(=O)N[C@@H](CSc1c(F)c(F)c(-c2c3nc(c(-c4c(F)c(F)c(F)c(F)c4F)c4ccc([nH]4)c(-c4c(F)c(F)c(F)c(F)c4F)c4nc(c(-c5c(F)c(F)c(F)c(F)c5F)c5ccc2[nH]5)C=C4)C=C3)c(F)c1F)C(=O)N[C@@H](CS)C(=O)NCC(N)=O [H-Ala-Cys-Cys-Gly-NH2],"ring closure, conversion by HPLC",[1]; 21-membered ring,0%
C[C@H](N)C(=O)N[C@@H](CSc1c(F)c(F)c(-c2c3nc(c(-c4c(F)c(F)c(F)c(F)c4F)c4ccc([nH]4)c(-c4c(F)c(F)c(F)c(F)c4F)c4nc(c(-c5c(F)c(F)c(F)c(F)c5F)c5ccc2[nH]5)C=C4)C=C3)c(F)c1F)C(=O)N[C@@H](Cc1c[nH]cn1)C(=O)N[C@@H](CS)C(=O)NCC(N)=O [H-Ala-Cys-His-Cys-Gly-NH2],"ring closure, conversion by HPLC",[1]; 24-membered ring,43%
C[C@H](N)C(=O)N[C@@H](CSc1c(F)c(F)c(-c2c3nc(c(-c4c(F)c(F)c(F)c(F)c4F)c4ccc([nH]4)c(-c4c(F)c(F)c(F)c(F)c4F)c4nc(c(-c5c(F)c(F)c(F)c(F)c5F)c5ccc2[nH]5)C=C4)C=C3)c(F)c1F)C(=O)N[C@@H](CO)C(=O)N[C@H](C(=O)N[C@@H](CCC(N)=O)C(=O)N[C@@H](Cc1c[nH]cn1)C(=O)N[C@@H](CCC(N)=O)C(=O)N[C@@H](CS)C(=O)NCC(N)=O)[C@@H](C)O [H-Ala-Cys-Ser-Thr-Gln-His-Gln-Cys-Gly-NH2],"ring closure, conversion by HPLC",[1]; 36-membered ring,56%
same,"ring closure, isolated yield",[1]; 36-membered ring,24%
C[C@H](N)C(=O)N[C@@H](CSc1c(F)c(F)c(-c2c3nc(c(-c4c(F)c(F)c(F)c(F)c4F)c4ccc([nH]4)c(-c4c(F)c(F)c(F)c(F)c4F)c4nc(c(-c5c(F)c(F)c(F)c(F)c5F)c5ccc2[nH]5)C=C4)C=C3)c(F)c1F)C(=O)N[C@@H](Cc1c[nH]cn1)C(=O)N[C@@H](CCC(N)=O)C(=O)N[C@@H](CS)C(=O)NCC(N)=O [H-Ala-Cys-His-Gln-Cys-Gly-NH2],"ring closure, conversion by HPLC",[1]; 27-membered ring,65%
CC[C@H](C)[C@H](NC(=O)[C@H](CCCCN)NC(=O)CNC(=O)[C@H](CC(C)C)NC(=O)[C@H](CC(C)C)NC(=O)[C@H](Cc1ccc(O)cc1)NC(=O)CNC(=O)[C@H](C)N)C(=O)N[C@@H](CC(N)=O)C(=O)N[C@@H](CC(C)C)C(=O)N[C@@H](CCCCN)C(=O)N[C@@H](C)C(=O)N[C@@H](CSc1c(F)c(F)c(-c2c3nc(c(-c4c(F)c(F)c(F)c(F)c4F)c4ccc([nH]4)c(-c4c(F)c(F)c(F)c(F)c4F)c4nc(c(-c5c(F)c(F)c(F)c(F)c5F)c5ccc2[nH]5)C=C4)C=C3)c(F)c1F)C(=O)N[C@@H](C)C(=O)N[C@@H](C)C(=O)N[C@@H](CC(C)C)C(=O)N[C@@H](C)C(=O)N[C@@H](CCCCN)C(=O)N[C@@H](CCCCN)C(=O)N[C@@H](CS)C(=O)N[C@@H](CC(C)C)C(N)=O,"ring closure, conversion by HPLC",[1]; 39-membered ring,72%
C[C@H](N)C(=O)N[C@@H](CSc1c(F)c(F)c(-c2c3nc(c(-c4c(F)c(F)c(F)c(F)c4F)c4ccc([nH]4)c(-c4c(F)c(F)c(F)c(F)c4F)c4nc(c(-c5c(F)c(F)c(F)c(F)c5F)c5ccc2[nH]5)C=C4)C=C3)c(F)c1F)C(=O)N[C@@H](CCC(N)=O)C(=O)N[C@@H](Cc1c[nH]cn1)C(=O)N[C@@H](CCC(N)=O)C(=O)N[C@@H](CS)C(=O)NCC(N)=O [H-Ala-Cys-Gln-His-Gln-Cys-Gly-NH2],"ring closure, conversion by HPLC",[1]; 30-membered ring,65%
same,"ring closure, isolated yield",[1]; 30-membered ring,39%
C[C@H](N)C(=O)N[C@@H](CSc1c(F)c(F)c(-c2c3nc(c(-c4c(F)c(F)c(F)c(F)c4F)c4ccc([nH]4)c(-c4c(F)c(F)c(F)c(F)c4F)c4nc(c(-c5c(F)c(F)c(F)c(F)c5F)c5ccc2[nH]5)C=C4)C=C3)c(F)c1F)C(=O)N[C@@H](C)C(=O)N[C@@H](CS)C(=O)NCC(N)=O [H-Ala-Cys-Ala-Cys-Gly-NH2],"ring closure, conversion by HPLC",[1]; 24-membered ring,6%
CC[C@H](C)[C@H](NC(=O)[C@H](Cc1ccc(O)cc1)NC(=O)CNC(=O)[C@@H](NC(=O)[C@@H](NC(=O)[C@H](CSc1c(F)c(F)c(-c2c3nc(c(-c4c(F)c(F)c(F)c(F)c4F)c4ccc([nH]4)c(-c4c(F)c(F)c(F)c(F)c4F)c4nc(c(-c5c(F)c(F)c(F)c(F)c5F)c5ccc2[nH]5)C=C4)C=C3)c(F)c1F)NC(=O)[C@@H](N)CC(N)=O)C(C)C)C(C)C)C(=O)NCC(=O)N[C@@H](CCC(=O)O)C(=O)N[C@@H](CCCNC(=N)N)C(=O)N[C@@H](CS)C(=O)N[C@@H](CCC(N)=O)C(N)=O [H-Asn-Cys-Val-Val-Gly-Tyr-Ile-Gly-Glu-Arg-Cys-Gln-NH2],"ring closure, conversion by HPLC",[1]; 45-membered ring,36%
C[C@H](N)C(=O)N[C@@H](CSc1c(F)c(F)c(-c2c3nc(c(-c4c(F)c(F)c(F)c(F)c4F)c4ccc([nH]4)c(-c4c(F)c(F)c(F)c(F)c4F)c4nc(c(-c5c(F)c(F)c(F)c(F)c5F)c5ccc2[nH]5)C=C4)C=C3)c(F)c1F)C(=O)N[C@H](C(=O)N[C@@H](CCC(N)=O)C(=O)N[C@@H](Cc1c[nH]cn1)C(=O)N[C@@H](CCC(N)=O)C(=O)N[C@@H](CS)C(=O)NCC(N)=O)[C@@H](C)O [H-Ala-Cys-Thr-Gln-His-Gln-Cys-Gly-NH2],"ring closure, conversion by HPLC",[1]; 33-membered ring,65%
same,"ring closure, isolated yield",[1]; 33-membered ring,25%
C[C@H](N)C(=O)N[C@@H](CSc1c(F)c(F)c(-c2c3nc(c(-c4c(F)c(F)c(F)c(F)c4F)c4ccc([nH]4)c(-c4c(F)c(F)c(F)c(F)c4F)c4nc(c(-c5c(F)c(F)c(F)c(F)c5F)c5ccc2[nH]5)C=C4)C=C3)c(F)c1F)C(=O)N[C@H](C(=O)N[C@@H](Cc1c[nH]cn1)C(=O)NCC(=O)N[C@@H](CCC(N)=O)C(=O)N[C@H](C(=O)N[C@@H](CCC(N)=O)C(=O)N[C@@H](CO)C(=O)N[C@@H](CS)C(=O)NCC(N)=O)[C@@H](C)O)[C@@H](C)O [H-Ala-Cys-Thr-His-Gly-Gln-Thr-Gln-Ser-Cys-Gly-NH2],"ring closure, conversion by HPLC",[1]; 42-membered ring,47%
same,"ring closure, isolated yield",[1]; 42-membered ring,10%
C[C@H](N)C(=O)N[C@@H](CSc1c(F)c(F)c(-c2c3nc(c(-c4c(F)c(F)c(F)c(F)c4F)c4ccc([nH]4)c(-c4c(F)c(F)c(F)c(F)c4F)c4nc(c(-c5c(F)c(F)c(F)c(F)c5F)c5ccc2[nH]5)C=C4)C=C3)c(F)c1F)C(=O)N[C@@H](C)C(=O)N[C@H](C(=O)NCC(=O)N[C@@H](CO)C(=O)N[C@H](C(=O)N[C@@H](CCC(N)=O)C(=O)N[C@@H](Cc1c[nH]cn1)C(=O)N[C@@H](CCC(N)=O)C(=O)N[C@@H](CS)C(=O)NCC(N)=O)[C@@H](C)O)[C@@H](C)O [H-Ala-Cys-Ala-Thr-Gly-Ser-Thr-Gln-His-Gln-Cys-Gly-NH2],"ring closure, conversion by HPLC",[1]; 45-membered ring,36%
